{"source": "patent US20020032151A1", "about": "“Modulating the permeability of a physiological barrier with an agent that modulates tyrosine phosphorylation” (priority 1993, published 2002)", "key": {"[1]": {"tested_on": "E-cadherin/catenin complex", "assay_type": "cell-based, canine"}, "MDCK strain I cells [2]": {"tested_on": "MDCK strain I cells", "experiment": "Transcellular electrical resistance (TER) of filter-grown MDCK strain I cells", "assay_type": "cell-based, canine"}, "[3]": {"tested_on": "bovine brain microvessel endothelial cells (BBECs)", "settings": "BBECs as well as endothelial cells derived from human brain; previously shown (Rubin et al. 1991); cited from earlier work"}, "MDCK strain I cells [4]": {"tested_on": "MDCK strain I cells", "assay_type": "cell-based, canine"}, "[5]": {"tested_on": "pp60^v−src transfected rat 3Y1 cells", "settings": "pp60v-src transfected rat 3Y1 fibroblast cell line; Matsuyoshi et al. 1992; cited from earlier work"}, "[6]": {"tested_on": "bovine brain microvessel endothelial cells (BBECs)", "assay_type": "cell-based"}, "MDCK strain I cells [7]": {"tested_on": "MDCK strain I cells", "assay_type": "cell-based, canine", "remark": "listed apart in the source"}, "[8]": {"tested_on": "brain tissue from normal adult rat", "experiment": "Phosphotyrosine (4G10) label of blood vessels in rat brain tissue exposed to pervanadate", "settings": "rat brain tissue exposed to pervanadate (FIG. 10F)", "description": "In these experiments, brain sections were labelled with an antibody to phosphotyrosine (monoclonal antibody 4G10) and labelled with a polyclonal antibody to collagen type IV to outline blood vessels. In sham operated animals, 4G10 label was restricted to a few large, peripherally located, vessels with a pattern of staining consistent with tyrosine phosphorylation of proteins at the borders of cells lining the vessels. After 24 hours of MCA occlusion an increase in 4G10 label was seen associated with microvessels located at the edge of the severely damaged tissue (see FIG. 10). The increase in 4G10 label was restricted to vessels in the area of the lesion, but not every vessel was labelled. 4G10 distribution in the microvessels is similar to that seen when brain tissue from normal adult rat is exposed to pervanadate, a drug that elevates levels of phosphotyrosine by inhibiting the enzymes responsible for tyrosine dephosphorylation.\nSections were air-dried and permeablised with 95% ethanol at −95° C. for 30 minutes followed by acetone at room temperature for 1 minute. All of the antibody incubations and washes used PBS containing 5×10^−4 M sodium vanadate. […]"}, "MDCK cells [9]": {"tested_on": "MDCK cells", "settings": "Volberg et al. 1992; cited from earlier work"}, "[10]": {"tested_on": "ZO-1 and associated proteins", "assay_type": "cell-based, canine"}, "BBECs [11]": {"tested_on": "BBECs", "assay_type": "cell-based, bovine"}, "MDCK cells [12]": {"tested_on": "MDCK cells", "assay_type": "cell-based, canine"}, "BBECs [13]": {"tested_on": "BBECs", "assay_type": "cell-based, bovine", "remark": "listed apart in the source"}}, "note": "Entries after “also recorded” stand apart in the source; their conditions may differ. Read-outs that look alike come from different tables or passages of the source.", "data": [{"compound": "OCC(S)CS", "note": "(centres unmarked) [2,3-dimercaptopropanol]", "values": [{"measurement": "reversal of PAO-stimulated catenin tyrosine phosphorylation", "setting": "[1]", "result": "is reversed; also recorded: reversed catenin tyrosine phosphorylation"}, {"measurement": "block of PAO-induced decrease in TER by reducing agent", "setting": "MDCK strain I cells [2]; MDCK cells preincubated 10 minutes with 200 μM β-mercaptoethanol or 100 μM 2,3-dimercaptopropanol, 10 μM PAO, TER 30 minutes later (FIG. 2b)", "result": "blocked"}, {"measurement": "block of BAPTA-elicited decrease in TER", "setting": "MDCK strain I cells [2]; MDCK cells, 100 μM 2,3-dimercaptopropanol preincubation, 3 mM BAPTA (FIG. 2b)", "result": "did not block"}]}, {"compound": "O=C(O)CN(CC(=O)O)c1ccccc1OCCOc1ccccc1N(CC(=O)O)CC(=O)O", "note": "[BAPTA, bis- (O-aminophenoxy)-ethane-N,N,N′,N′-tetraacetic acid]", "values": [{"measurement": "change in TER", "setting": "MDCK strain I cells [2]; MDCK strain I cells, preformed pervanadate 0.01-0.1 mM (FIG. 1b), PAO 1-30 μM (FIG. 2a), BAPTA 2.5-3 mM", "result": "decrease in TER"}]}, {"compound": "Nc1ncnc2c1ncn2[C@@H]1O[C@@H]2COP(=O)(O)O[C@H]2[C@H]1O", "note": "[cyclic AMP]", "values": [{"measurement": "effect of cyclic AMP on TER", "setting": "[3]", "result": "increases TER"}]}, {"compound": "CO[C@H]1[C@@H](OC)C[C@H](C)[C@@H](OC)C2=CC(=O)C=C(NC(=O)/C(C)=C/C=C\\[C@H](OC)[C@@H](OC(N)=O)/C(C)=C/[C@@H]1C)C2=O", "note": "[herbimycin A]", "values": [{"measurement": "effect of herbimycin A alone on resistance", "setting": "MDCK strain I cells [2]", "result": "did not affect resistance"}, {"measurement": "effect of herbimycin A pretreatment on PAO-induced decrease in transcellular electrical resistance", "setting": "MDCK strain I cells [2]", "result": "attenuated the decrease in transcellular electrical resistance"}, {"measurement": "effect of herbimycin A on PAO-induced increase in protein tyrosine phosphorylation", "setting": "MDCK strain I cells [4]", "result": "attenuated the ability of PAO to increase protein tyrosine phosphorylation"}]}, {"compound": "[O]=[V]([O-])([O-])[O-]", "note": "[vanadate]", "values": [{"measurement": "change in TER after addition of H2O2 to vanadate pretreated cells", "setting": "MDCK strain I cells [2]", "result": "caused a rapid decrease in TER"}, {"measurement": "change in TER over a longer time period, vanadate alone", "setting": "MDCK strain I cells [2]", "result": "caused a decrease in TER"}, {"measurement": "change in TER, vanadate alone", "setting": "MDCK strain I cells [2]", "result": "did not cause a decrease in TER"}, {"measurement": "tyrosine phosphorylation of cadherin and β-catenin", "setting": "[5]", "result": "induced the tyrosine phosphorylation of E- or P-cadherin and β-catenin"}]}, {"compound": "OCCS", "note": "[β-mercapto-ethanol, β-mercaptoethanol]", "values": [{"measurement": "block of PAO-induced decrease in TER by reducing agent", "setting": "MDCK strain I cells [2]", "result": "not"}]}, {"compound": "pervanadate", "values": [{"measurement": "change in TER", "setting": "[6]", "result": "caused a dose-dependent and rapid decrease in TER"}, {"measurement": "anti-phosphotyrosine staining pattern", "setting": "MDCK strain I cells [7]", "result": "initially caused an increase in staining at the adherens junction at the intercellular borders"}, {"measurement": "tyrosine phosphorylation of proteins in anti-E-cadherin immunoprecipitates", "setting": "[1]", "result": "stimulates the tyrosine phosphorylation of several catenins as well as E-cadherin; also recorded: caused an increase in the tyrosine phosphorylation of several proteins"}, {"measurement": "tyrosine phosphorylation of α-catenin in α-catenin immunoprecipitates", "setting": "[1]", "result": "could not be detected"}, {"measurement": "β-catenin content of phosphotyrosine immunoprecipitates", "setting": "[1]", "result": "is increased; also recorded: rapidly increased"}, {"measurement": "phosphotyrosine label of blood vessels", "setting": "[8]", "result": "induces detectable levels of phosphotyrosine in both large and small vessels; also recorded: induces increased phosphotyrosine in both small and large blood vessels"}, {"measurement": "change in TER", "setting": "MDCK strain I cells [2]", "result": "elicited a decrease in TER"}, {"measurement": "reversibility of the induced decrease in TER by reducing agent if added early enough", "setting": "MDCK strain I cells [2]", "result": "partially reversed"}, {"measurement": "effect on the tight junction, by immunostaining of ZO-1", "setting": "MDCK cells [9]", "result": "had no effect on the tight junction"}, {"measurement": "tyrosine phosphorylation of proteins at the adherens junction", "setting": "MDCK cells [9]", "result": "elicited tyrosine phosphorylation of proteins at the adherens junction"}, {"measurement": "tyrosine phosphorylation of ZO-1", "setting": "[10]", "result": "also stimulated tyrosine phosphorylation of ZO-1; also recorded: clearly resulted in the tyrosine phosphorylation"}, {"measurement": "tyrosine phosphorylation of ZO-2", "setting": "[10]", "result": "clearly resulted in the tyrosine phosphorylation"}, {"measurement": "anti-phosphotyrosine staining pattern", "setting": "BBECs [11]", "result": "initially caused an increase in staining at the adherens junction at the intercellular borders"}, {"measurement": "paracellular flux of sucrose", "setting": "MDCK cells [12]", "result": "increase the paracellular flux of sucrose"}, {"measurement": "tyrosine phosphorylation of proteins in whole cell lysates", "setting": "BBECs [13]", "result": "caused an increase in the tyrosine phosphorylation of many proteins"}, {"measurement": "tyrosine phosphorylation of proteins in whole cell lysates", "setting": "MDCK strain I cells [4]", "result": "caused an increase in the tyrosine phosphorylation of many proteins"}]}]}
